# Patent publication US10905675B2, “Use of carbamate compound for prevention, alleviation or treatment of pruritus” (SK BIOPHARMACEUTICALS CO., LTD., priority 2016, dated 2021)
# Columns and labels:
# [1] = tested on: acute pruritus induced by intradermal administration of serotonin; assay: Acute pruritus animal model induced by intradermal administration of serotonin (scratching reactions); type: in vivo, rats (Sprague-Dawley); settings: rats; for inhibition of acute pruritus (number of scratching reactions) compared to the control group: 1 hour before intradermal serotonin, scratching counted for 30 minutes
# Protocol: Mature male rats (Sprague-Dawley, 200 to 230 g) were used. The experimental animals were maintained at a light-and-darkness cycle of 12 hours (illuminated from 7 pm to 7 am), a temperature of 22 to 25° C., a relative humidity of 40 to 60%, and free access to water and food. The animals were randomly divided into three groups as follows: • Eight (8) rats as a control group, orally administered with 30% PEG400 as a vehicle at a dose of 5 ml/kg • Eight (8) rats, orally administered with the test compound at a dose of 10 mg/kg (5 ml/kg) • Eight (8) rats, orally administered with the test compound at a dose of 30 mg/kg (5 ml/kg)
# On the day before the experiment, the skin fur on the right scapula of the rats was shaved to an area of about 2 cm square. On the day of the experiment, serotonin hydrochloride was dissolved in 0.9% physiological saline at a concentration of 4 mg/ml. The rats were placed in an acrylic box (20×30×20 cm) and adapted for 15 minutes in a quiet area, followed by intradermal administration of the dissolved serotonin in 50 μl per rat on the shaved area (Thomsen et al, Scratch induction in the rat by intradermal serotonin: a model for pruritus, Acta Derm Venereol, 2001).
# Only when the rats scratched body parts within 5 cm square around the skin area where serotonin was administered, it was judged to be a valid scratching reaction.
# The test compound was orally administered to the rats at a dose of 10 mg/kg (5 ml/kg) and 30 mg/kg (5 ml/kg) 1 hour before intradermal administration of serotonin.
# [2] = tested on: chronic pruritus induced by administration of capsaicin immediately after birth; assay: Chronic pruritus animal model induced by subcutaneous administration of capsaicin immediately after birth (scratching reactions); type: in vivo, rats (Sprague-Dawley); settings: rats, oral 30 mg/kg, 1 hour before measurement, third week after capsaicin, scratching counted for 1 hour
# Protocol: Baby rats within 48 hours after birth (Sprague-Dawley, 7 to 10 g) were obtained together with the mother rats, and were used. The experimental animals were maintained at a light-and-darkness cycle of 12 hours (illuminated from 7 pm to 7 am), a temperature of 22 to 25° C., a relative humidity of 40 to 60%, and free access to water and food. Until the 21st day after birth, the baby rats were bred together with the mother rats and allowed to drink the mother's milk. After the 21st day, the baby rats were kept off the milk and separated from the mother rats. The animals were randomly divided into two groups as follows: • Seven (7) rats as a control group, orally administered with 30% PEG400 as a vehicle at a dose of 5 ml/kg • Seven (7) rats, orally administered with the test compound at a dose of 30 mg/kg (5 ml/kg) […]
# On the third week after capsaicin administration, the animals were placed in an acrylic box (20×30×20 cm), adapted for 30 minutes in a quiet area, and then observed for the number of scratching behaviors for 1 hour. One continuous scratching reaction was counted as one scratching reaction. […]
compound,measurement,setting,value
NC(=O)O[C@@H](Cn1ncnn1)c1ccccc1Cl [the test compound],dose dependence of the reduction of itching responses,[1]; oral 10 mg/kg and 30 mg/kg,dose-dependent
same,inhibition of acute pruritus (number of scratching reactions) compared to the control group,[1]; oral 10 mg/kg,statistically significantly inhibited
same,inhibition of acute pruritus (number of scratching reactions) compared to the control group,[1]; oral 30 mg/kg,statistically significantly inhibited
same,inhibition of chronic pruritus (number of scratching reactions) compared to the control group,[2],statistically significantly inhibited
